Experimental data: patent US20100298285A1, “Biclycloheteroaryl Compounds as P2x7 Modulators and Uses Thereof” (priority 2006, published 2010)
One block for each molecule: values may come before it.

System: IL-1β release, THP-1 cells
Test: IL-1β release assay in differentiated THP-1 cells stimulated with BzATP (Example 9)
Type: cell-based
Conditions: Homo sapiens
Procedure, shortened: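 THP-1 cells differentiated 16 h with 100 ng/mL LPS + 100 ng/mL IFN-γ, re-primed 2 h with fresh LPS 100 ng/mL, pretreated 30 min with compound, then stimulated with BzATP 250 uM final for 45 min. Supernatant IL-1β by ELISA; background-adjusted % inhibition, IC50 from four-parameter logistic fit.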

Compound: O=C(Cc1cccc(C(F)(F)F)c1F)Nc1c(Cl)ccc2c1CCN(C(=O)C1CCCC1)C2 [Compound 3144]
inhibition at 0.3 µM (0.3 μM compound ("+" symbols), differentiated THP-1 cells, 250 uM BzATP, read-out: IL-1β% Inhib. @ 0.3 or 0.1 μM): 0 to 25%

Compound: COc1cccc(S(=O)(=O)N2CCc3c(ccc(Cl)c3NC(=O)Cc3ccc(C(F)(F)F)cc3)C2)c1 [Compound 3030]
inhibition at 0.1 µM (0.1 μM compound ("*" symbols), differentiated THP-1 cells, 250 uM BzATP, read-out: IL-1β% Inhib. @ 0.3 or 0.1 μM): 0 to 25%

IC50 (THP-1 cells, BzATP 250 uM, four parameter logistic fit): 25.2 nM
Compound: CCS(=O)(=O)N1CCc2c(ccc(C)c2NC(=O)Cc2ccc(C(F)(F)F)c(F)c2)C1 [Compound 3433]
